Molecular target: Prokineticin receptor 2 (Homo sapiens, UniProt Q8NFJ6)
Test: Calcium Mobilization Assay
Conditions: pH 7.5; 37 °C
Method: Briefly, Chinese hamster ovary cells stably expressing the photoprotein aequorin were transiently transfected with WT or respective mutant PKR2-expressing plasmids. Two days after transfection, the cells were charged in Opti-MEM (Invitrogen) containing 8 μM coelenterazine cp (Invitrogen) at 37 °C for 2 h. Cells were detached by brief trypsinization and maintained in assay buffer (Hanks' balanced salt solution plus 10 mM HEPES, pH 7.5, and 0.1% bovine serum albumin) at approximately 5 × 10^5 cells/ml. Luminescence measurements were made using a Sirius Single Tube Luminometer (Berthold Detection Systems GmbH, Pforzheim, Germany). PK2 was serially diluted in assay buffer and mixed with cells. The luminescence was monitored for 35 s (peak 1), then 100 μl of 1% Triton X-100 was injected to lyse the cells, and the luminescence was monitored continuously for another 20 s (peak 2). The area under the curve of the peak 1 was divided by the total area under the curve of peaks 1 and 2, and the maximal responses from WT receptors were normalized to 100.

Sequence of Prokineticin receptor 2 (Q8NFJ6 whole entry): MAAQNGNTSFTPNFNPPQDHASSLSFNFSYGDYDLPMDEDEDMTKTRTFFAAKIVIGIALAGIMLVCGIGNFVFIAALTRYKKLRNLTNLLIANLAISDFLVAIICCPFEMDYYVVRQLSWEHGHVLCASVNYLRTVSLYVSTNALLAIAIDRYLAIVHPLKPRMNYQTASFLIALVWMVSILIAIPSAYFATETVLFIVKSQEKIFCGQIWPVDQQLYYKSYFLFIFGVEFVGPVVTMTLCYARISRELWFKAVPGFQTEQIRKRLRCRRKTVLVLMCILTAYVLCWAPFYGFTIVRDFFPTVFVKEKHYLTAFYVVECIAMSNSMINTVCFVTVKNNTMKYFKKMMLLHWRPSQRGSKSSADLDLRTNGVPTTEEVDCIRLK

- IC50: 102 nM
Structure (SMILES): CC(C)CN(Cc1cc(Cl)c2c(c1)OCCCO2)C(=O)C1CCN(Cc2ccccc2)C1 (racemic) [US8722896, (+/-)-1-Benzyl-N-(9-chloro-3,4-dihydro-2H-1,5-benzodioxepin-7-ylmethyl)-N-isobutylpyrrolidine-3-carboxamide]

From BindingDB's records for doi:10.1074/jbc.M114.556381 (Central South University, 2014)
